In series [1] the test system is cord blood (CB)-derived CD34+ cells. The class given is cell-based, human. The protocol:
(§1) Human CB and BM-derived haematopoietic stem/progenitor cells (HSPC) were cultured in serum-free StemSpan medium (StemCell Technologies) supplemented with 100 ng/mL recombinant human stem cell factor (rhSCF), 20 ng/mL recombinant human thrombopoietin (rhTPO), 100 ng/mL recombinant human Flt3 ligand (rhFlt3) and 20 ng/mL recombinant human IL6 (rhIL6) (all from Peprotech) 16 to 24 hours prior to transduction. HSPC were then transduced at a concentration of 1×10^6 cells per mL with vesicular stomatitis virus glycoprotein (VSV-G)-pseudotyped SINLV for 20 hours at the indicated multiplicity of infection (MOI) in the same medium. After transduction, cells were washed and maintained serum-free StemSpan supplemented with cytokines as above until the reading of GFP-positive (GFP+) cells by FACS. After FACS they were maintained in Roswell Park Memorial Institute medium (RPMI, Lonza) supplemented with 10% FBS, 25 ng/mL rhSCF, 5 ng/mL rhIL6, 25 ng/mL rhFlt3 and 5 ng/mL rhTPO for another seven days before analysis of vector copy numbers. MDM were transduced 7 days after differentiation. T lymphocytes were transduced at a concentration of 10^6 cells per mL, after 3 days of stimulation. All the cells were exposed to the vector for 16-20 hours.
(§2) They were added to the transduction medium at the indicated concentration and washed out with the vector 16-20 hours later.
(§3) GFP expression in transduced cells was measured 5-7 days post-transduction. Adherent MDM were detached by scraping in 5 mM PBS-EDTA, washed and resuspended in PBS containing 2% FBS. Cells grown in suspension were washed and resuspended in PBS containing 2% FBS. To exclude dead cells from the analysis, 10 ng/mL 7-aminoactinomycin D (7-AAD) was added.
(§4) DNA from cell cultures was extracted using a Maxwell 16 instrument (Promega) or Blood & Cell Culture DNA Micro Kit (Qiagen). To amplify the vector sequence, primers and probes complementary to the vector Rev responsive element sequence were used. Vector copy numbers and replication intermediates were normalised to genomic DNA content, which was assessed using the human TERT gene. Quantitative polymerase chain reaction (qPCR) primers and probe sequences and conditions were previously described (Santoni de Sio, F. R. et al (2006) Blood 107: 4257-65).

Series [2] deals with bone marrow (BM)-derived CD34+ cells. The class given is cell-based, human. On the procedure: as §1, §2, §3, §4
For the next series, the system named is CB-derived CD34+ cells. The experiment in a line: γ-retroviral SINRV-GFP transduction of CB-derived CD34+ cells. The class given is cell-based, human. The conditions noted are these: CB-derived HSPC; MOI of 10 (FIG. 24).
In series [3] the test system is Human cord blood-derived CD34+ cells transplanted in NSG mice. The experiment in a line: Transplantation of transduced human HSPC in NSG mice. The class given is in vivo, NOD-SCID-IL2Rg−/− (NSG) mice. The protocol:
NOD-SCID-IL2Rg−/− (NSG) mice were purchased from Jackson laboratory. All animal procedures were performed according to protocols approved by the Animal Care and Use Committee of the Ospedale San Raffaele (IACUC 661) and communicated to the Ministry of Health and local authorities according to Italian law. […] After transduction, 1.3×10^5 cells were infused into the tail vein of sublethally irradiated 10-week-old NSG mice (radiation dose: 200 cGy for mice weighing 18-25 g and 220 cGy for mice above 25 g of weight). Transduced and untransduced cells were also cultured in vitro for 14 days for further analysis. In vitro cultured cells and BM cells isolated from transplanted mice at the time of sacrifice were then used to quantify the VCN by qPCR.
For each mouse, 250 μL of peripheral blood were added to 15 μL of PBS containing 45 mg/mL EDTA. For immunostaining, a known volume of whole blood (100 μL) was first incubated with anti-human FcγIII/II receptor (Cd16/Cd32) blocking antibodies for 15 min at 4° C. and then incubated in the presence of monoclonal antibodies (for antibodies, see Table 1) for 20 min at 4° C. Erythrocytes were removed by lysis with the TQ-Prep workstation (Beckman-Coulter) in the presence of an equal volume of FBS (100 μL) to protect white blood cells.
BM cells were obtained by flushing the femurs in PBS 2% FBS solution. Cells (1×10^6 cells) were washed, resuspended in 100 μL of PBS containing 2% FBS, and incubated with anti-human receptor (Cd16/Cd32) blocking antibodies for 15 min at 4° C. Staining was then performed with monoclonal antibodies (for antibodies, see Table 1) for 20 min at 4° C. Cells were washed and finally resuspended in PBS containing 2% FBS.
Spleens were first smashed and the resulting cell suspension was passed through 40 μm nylon filter and washed in cold phosphate buffered saline (PBS) containing 2 mM EDTA and 0.5% bovine serum albumin (BSA). Cells were incubated with anti-human receptor (Cd16/Cd32) blocking antibodies for 15 min at 4° C. and then stained with anti-human monoclonal antibodies (for antibodies, see Table 1) for 20 min at 4° C. Cells were finally washed and resuspended in PBS containing 2% FBS.

Another series concerns IFNα. The experiment in a line: IFNα ELISA on supernatants of transduced CB-derived HSPC. The class given is cell-based, human. The conditions noted are these: CB-derived HSPC 24 hours after exposure (FIG. 26). The protocol:
IFNα levels in supernatants from HSPC transduced in the presence of the agents. […] IFNα concentration was assessed using the VeriKine™ Human IFN Alpha ELISA Kit. HUVEC-10 cells were used as a positive control and the medium in which the cells were cultured as the negative control. Data represent the mean±SEM of three independent experiments.
To assess the secretion of human IFNα upon transduction of CB-derived HSPCs in the presence of the different compounds, supernatants from transduced cells were harvested 24 hours post-transduction and the IFNα concentration was assessed using the VeriKine™ Human IFN Alpha ELISA Kit (PBL interferon source, #41100) according to manufacturer's instructions.

Consider `CO[C@H]1C[C@@H]2CC[C@@H](C)[C@@](O)(O2)C(=O)C(=O)N2CCCC[C@H]2C(=O)O[C@H]([C@H](C)C[C@@H]2CC[C@@H](O)[C@H](OC)C2)CC(=O)[C@H](C)/C=C(\C)[C@@H](O)[C@@H](OC)C(=O)[C@H](C)C[C@H](C)/C=C/C=C/C=C/1C` [rapamycin, Rapamycin], for which the “increase in the percentage of GFP+ cells” value in series [1] and in series [2] was 2 fold throughout. Further, the “transduction efficiency in titration of Rapa” value in series [1] (10 μg/ml vs lower doses, MOI 1 (FIG. 28)) is “improved transduction efficiency over lower doses”. Also, the “GFP+ cells with clinical grade SINLV” value in series [1] (CB-derived CD34+ cells, clinical grade PGK-GFP SINLV, MOI of 10 (FIG. 25A)) was “up to 60%”. The “transduction efficiency of WT and CA mutant vectors” value in series [1] (CD34+ cells, SINLVs with single CA point mutations MOI 1, vs DMSO (FIG. 14B)) is recorded as “increased efficiency for all CA mutants”. For the same compound, the “transduction levels in all HSPC subpopulations” value in series [1] (CD34− progenitors to CD34+CD133+CD90+ cells, FACS three days after transduction (FIG. 15C)) is on record as “equally improved transduction levels”. For the same compound, the “percentage of GFP+ cells with γ-retroviral SINRV” value with CB-derived CD34+ cells was “neither compound was able to significantly increase”. In series [3] (20 weeks post-transplant (FIG. 22H), DMSO 49.0±5), the “overall percentage of GFP+ cells in the spleen” value was 80.8±1%. Also, the “GFP+/hCD45+ cells in peripheral blood” value in series [3] (NSG mice, 11 weeks after transplant (FIG. 22C), DMSO 48±6) was found to be 78±2%. In addition, the “VCN in the BM cells” value in series [3] (NSG mice, 20 weeks post-transplant, DMSO 0.9±0.2) is 3.6±0.4. For the same compound, the “levels of engraftment in the BM with respect to controls (in words)” value in series [3] (NSG mice, 20 weeks post-transplant, p<0.047 v. DMSO) was “modest but statistically significant increase”. Further, the IFNα secretion entry in the series on IFNα was “no detectable levels”.

(Values after US10391201B2, “Gene therapy” (Ospedale San Raffaele S.r.l., priority 2014, dated 2019).)
